Results taken from patent US12371428B2 (Exelixis, Inc., priority 2019, dated 2025).
Where a name gives a salt, the structure may show the parent alone.

Tests used:
[1] = biological target: Human MER (residues 528-999) (Homo sapiens (Human), UniProt Q12866); assay: Human Mer kinase assay, HTRF KinEase (Example C-2); assay type: biochemical; conditions: protocol of Example C-2 (other compounds)
How it was run: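 HTRF KinEase TK assay with MER 528-999 (1 ng/well) in enzymatic buffer plus 5 mM MgCl2 and 1 mM DTT, biotinylated peptide substrate and ATP at Km (40 μM), 3% DMSO final, 60 min at room temperature. Stopped with EDTA detection mix (SA-XL665, TK antibody-Eu3+), read at 665/620 nm after 60 min; IC50 from 10-point 4-parameter fit, normalized to DMSO and 1 μM reference.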

[2] = biological target: Human MET (residues 956-1390) (Homo sapiens (Human), UniProt P08581); assay: Human Met kinase assay, HTRF KinEase (Example D-2); assay type: biochemical; conditions: protocol of Example D-2 (other compounds); read-out: c-Met IC50
Sequence of Human MET (residues 956-1390) (P08581 956-1390): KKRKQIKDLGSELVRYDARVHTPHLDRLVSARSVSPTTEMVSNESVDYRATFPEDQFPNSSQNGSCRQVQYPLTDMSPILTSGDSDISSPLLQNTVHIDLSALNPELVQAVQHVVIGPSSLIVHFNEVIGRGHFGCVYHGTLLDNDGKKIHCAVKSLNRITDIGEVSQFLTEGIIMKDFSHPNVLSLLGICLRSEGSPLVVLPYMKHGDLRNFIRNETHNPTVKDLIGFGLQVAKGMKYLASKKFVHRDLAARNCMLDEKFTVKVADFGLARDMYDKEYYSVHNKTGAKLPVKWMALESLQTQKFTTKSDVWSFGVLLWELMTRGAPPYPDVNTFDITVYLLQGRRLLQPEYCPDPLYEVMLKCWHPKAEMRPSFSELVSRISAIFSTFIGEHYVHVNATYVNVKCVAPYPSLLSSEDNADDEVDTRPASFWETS
How it was run: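 HTRF KinEase assay on MET residues 956-1390 (0.1 ng/well) in buffer with 5 mM MgCl2, 1 mM DTT and 1 mM MnCl2, with biotinylated peptide substrate, ATP at Km, 10 compound concentrations and 3% DMSO final, run 40 min at room temperature. The […] signal was normalized to DMSO and to 1 μM reference compound, and IC50 came from a 4-parameter logistic fit.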

[3] = biological target: Met (phospho-Met, HGF-stimulated PC-3 prostate cancer cells) (Homo sapiens (Human), UniProt P08581); assay: Met autophosphorylation ELISA in PC-3 cells (Example F); assay type: cell-based; conditions: cellular activity; Met autophosphorylation ELISA in PC-3 cells; read-out: c-Met IC50
Sequence of Met (phospho-Met, HGF-stimulated PC-3 prostate cancer cells) (P08581 25-1390): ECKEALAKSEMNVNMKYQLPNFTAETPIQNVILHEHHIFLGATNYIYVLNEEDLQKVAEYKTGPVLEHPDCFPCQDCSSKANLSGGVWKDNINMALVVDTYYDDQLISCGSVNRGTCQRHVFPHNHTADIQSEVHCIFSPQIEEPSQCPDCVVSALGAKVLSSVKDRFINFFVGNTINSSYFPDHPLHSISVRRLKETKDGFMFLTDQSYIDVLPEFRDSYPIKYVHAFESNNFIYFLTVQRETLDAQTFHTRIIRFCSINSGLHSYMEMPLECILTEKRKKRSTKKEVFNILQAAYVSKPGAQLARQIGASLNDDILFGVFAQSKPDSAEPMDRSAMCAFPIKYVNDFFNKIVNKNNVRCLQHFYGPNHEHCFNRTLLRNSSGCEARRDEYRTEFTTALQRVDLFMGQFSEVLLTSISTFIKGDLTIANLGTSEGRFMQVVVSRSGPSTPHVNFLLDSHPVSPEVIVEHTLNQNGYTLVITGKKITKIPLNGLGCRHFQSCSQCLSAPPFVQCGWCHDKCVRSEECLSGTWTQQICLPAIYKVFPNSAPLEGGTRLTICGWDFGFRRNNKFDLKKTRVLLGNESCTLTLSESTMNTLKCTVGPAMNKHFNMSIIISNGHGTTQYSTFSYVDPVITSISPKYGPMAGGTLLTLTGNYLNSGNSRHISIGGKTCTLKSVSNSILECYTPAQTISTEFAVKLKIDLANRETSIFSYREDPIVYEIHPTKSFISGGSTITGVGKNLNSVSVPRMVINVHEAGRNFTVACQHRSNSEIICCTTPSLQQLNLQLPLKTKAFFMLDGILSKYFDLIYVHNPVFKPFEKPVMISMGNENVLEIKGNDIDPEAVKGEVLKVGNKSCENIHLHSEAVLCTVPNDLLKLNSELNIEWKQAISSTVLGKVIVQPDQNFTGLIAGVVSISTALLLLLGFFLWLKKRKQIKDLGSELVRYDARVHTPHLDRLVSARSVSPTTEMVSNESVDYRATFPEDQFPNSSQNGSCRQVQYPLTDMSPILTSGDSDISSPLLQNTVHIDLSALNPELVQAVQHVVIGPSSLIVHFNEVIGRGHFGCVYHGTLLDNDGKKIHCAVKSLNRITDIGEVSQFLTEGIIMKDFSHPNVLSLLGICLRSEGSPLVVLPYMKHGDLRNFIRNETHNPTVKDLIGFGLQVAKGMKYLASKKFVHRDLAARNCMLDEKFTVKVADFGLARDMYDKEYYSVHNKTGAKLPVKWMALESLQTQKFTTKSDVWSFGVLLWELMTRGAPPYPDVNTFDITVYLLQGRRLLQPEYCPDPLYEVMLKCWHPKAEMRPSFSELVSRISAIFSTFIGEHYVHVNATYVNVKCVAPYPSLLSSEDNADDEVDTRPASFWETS
How it was run: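 Serum-starved (3 h) PC-3 cells were treated 1 h with compounds (8-point curve, 0.3% DMSO), then stimulated with 100 ng/mL human HGF for 10 min. Lysate phospho-Met (panTyr) was measured by sandwich ELISA, normalised to DMSO and reference-inhibitor controls. IC50 came from 4-parameter logistic fit.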

[4] = biological target: Mer (phospho-Mer, MERTK-transfected 293A cells) (Homo sapiens (Human), UniProt Q12866); assay: Mer autophosphorylation ELISA in transient transfected 293A cells (Example H); assay type: cell-based; conditions: cellular activity; Mer autophosphorylation ELISA in transient transfected 293A cells
Sequence of Mer (phospho-Mer, MERTK-transfected 293A cells) (Q12866 21-999): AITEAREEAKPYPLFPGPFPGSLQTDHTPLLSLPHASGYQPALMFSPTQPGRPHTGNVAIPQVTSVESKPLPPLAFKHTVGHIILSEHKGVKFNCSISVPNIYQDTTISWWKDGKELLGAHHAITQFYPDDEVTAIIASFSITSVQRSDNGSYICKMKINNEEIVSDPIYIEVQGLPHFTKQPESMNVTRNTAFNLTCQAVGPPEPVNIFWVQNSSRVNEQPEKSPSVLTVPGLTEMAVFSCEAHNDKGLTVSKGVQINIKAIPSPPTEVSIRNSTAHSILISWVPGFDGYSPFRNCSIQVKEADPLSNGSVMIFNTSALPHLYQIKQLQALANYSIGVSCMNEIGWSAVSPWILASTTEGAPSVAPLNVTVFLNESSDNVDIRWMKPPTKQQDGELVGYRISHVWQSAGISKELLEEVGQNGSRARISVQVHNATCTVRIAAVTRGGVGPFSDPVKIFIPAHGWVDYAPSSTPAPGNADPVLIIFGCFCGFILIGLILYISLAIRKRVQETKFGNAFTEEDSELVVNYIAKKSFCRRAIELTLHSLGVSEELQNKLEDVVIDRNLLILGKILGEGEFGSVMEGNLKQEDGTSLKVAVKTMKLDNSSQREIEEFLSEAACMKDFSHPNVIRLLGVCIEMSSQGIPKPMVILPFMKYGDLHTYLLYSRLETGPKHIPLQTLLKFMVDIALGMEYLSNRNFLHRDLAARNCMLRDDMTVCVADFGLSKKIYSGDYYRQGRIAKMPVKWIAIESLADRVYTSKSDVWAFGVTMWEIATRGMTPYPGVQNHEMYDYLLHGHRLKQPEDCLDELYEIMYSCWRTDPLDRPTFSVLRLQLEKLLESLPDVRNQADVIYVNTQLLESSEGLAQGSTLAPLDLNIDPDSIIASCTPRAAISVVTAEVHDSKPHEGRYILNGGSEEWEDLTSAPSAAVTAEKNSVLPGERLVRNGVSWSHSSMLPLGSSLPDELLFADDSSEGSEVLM
How it was run: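 MERTK-transfected 293A; 8-pt dose, 1 h, serum-free, 0.3% DMSO. Cold lysis with orthovanadate and protease/phosphatase inhibitors. Phospho-Mer by DuoSet IC ELISA vs phospho-Mer standard. IC50: 4-PL fit; DMSO = 100%, reference inhibitor = 0%.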

Sequence of Human MER (residues 528-999) (Q12866 528-999): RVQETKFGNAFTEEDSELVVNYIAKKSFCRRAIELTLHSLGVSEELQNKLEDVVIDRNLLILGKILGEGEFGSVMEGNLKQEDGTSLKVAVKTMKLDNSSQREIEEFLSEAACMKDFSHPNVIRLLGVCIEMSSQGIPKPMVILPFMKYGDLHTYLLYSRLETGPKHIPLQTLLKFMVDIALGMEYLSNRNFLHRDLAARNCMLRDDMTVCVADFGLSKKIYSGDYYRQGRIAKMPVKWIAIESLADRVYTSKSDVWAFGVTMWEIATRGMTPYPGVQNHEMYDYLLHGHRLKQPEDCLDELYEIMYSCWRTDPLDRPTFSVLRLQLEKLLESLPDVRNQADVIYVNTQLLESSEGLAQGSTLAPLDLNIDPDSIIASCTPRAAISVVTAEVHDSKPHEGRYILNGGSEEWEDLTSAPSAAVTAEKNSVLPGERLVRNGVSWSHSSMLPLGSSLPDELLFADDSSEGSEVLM

SMILES | IC50 [1] | IC50 [2] | IC50 [3] | IC50 [4]
COc1ccc2nccc(Oc3ccc(NC(=O)c4c(C)nc(C)c(-c5ccc(F)cc5)c4O)cc3)c2n1 [Compound 340, 5-(4-fluorophenyl)-4-hydroxy-N-[4-[(6-methoxy-1,5-naphthyridin-4-yl)oxy]phenyl]-2,6-dimethylpyridine-3-carboxamide] | < 100 nM | < 100 nM | < 100 nM | < 100 nM
COc1cc2nccc(Oc3ccc(NC(=O)c4c(C)cc(C)n(-c5ccc(F)cc5)c4=O)cc3)c2nc1OC [Compound 288, N-[4-[(6,7-Dimethoxy-1,5-naphthyridin-4-yl)oxy]phenyl]-1-(4-fluorophenyl)-4,6-dimethyl-2-oxopyridine-3-carboxamide] | < 100 nM | < 100 nM | < 100 nM | < 100 nM
CCn1cc(C(=O)Nc2ccc(Oc3ccnc4cc(OC)cnc34)c(F)c2)c(=O)c(-c2ccc(F)cc2)c1CO [Compound 273, 1-Ethyl-N-[3-fluoro-4-[(7-methoxy-1,5-naphthyridin-4-yl)oxy]phenyl]-5-(4-fluorophenyl)-6-(hydroxymethyl)-4-oxopyridine-3-carboxamide] | < 100 nM | < 100 nM | < 100 nM | < 100 nM
COc1cc2nccc(Oc3ccc(NC(=O)c4c(C)ccn(-c5ccc(F)cc5)c4=O)cc3)c2nc1OC [Compound 299, N-[4-[(6,7-Dimethoxy-1,5-naphthyridin-4-yl)oxy]phenyl]-1-(4-fluorophenyl)-4-methyl-2-oxopyridine-3-carboxamide] | < 100 nM | < 100 nM | < 100 nM | < 100 nM
COc1cc2nccc(Oc3ccc(NC(=O)c4cn(C)cc(-c5ccc(Cl)cc5)c4=O)cc3F)c2nc1OC [Compound 38, 5-(4-Chlorophenyl)-N-[4-[(6,7-dimethoxy-1,5-naphthyridin-4-yl)oxy]-3-fluorophenyl]-1-methyl-4-oxopyridine-3-carboxamide hydrochloride] | < 100 nM | < 100 nM | 100 to 300 nM | < 100 nM
Cc1cc(C)n(-c2ccc(F)cc2)c(=O)c1C(=O)Nc1ccc(Oc2ccnc3cccnc23)c(F)c1 [Compound 295, N-[3-Fluoro-4-(1,5-naphthyridin-4-yloxy)phenyl]-1-(4-fluorophenyl)-4,6-dimethyl-2-oxopyridine-3-carboxamide] | < 100 nM | < 100 nM | < 100 nM | < 100 nM
CCn1cc(C(=O)Nc2ccc(Oc3ccnc4cc(OC)cnc34)cc2)c(=O)c(-c2ccc(F)cc2)c1CO [Compound 274, 1-Ethyl-5-(4-fluorophenyl)-6-(hydroxymethyl)-N-[4-[(7-methoxy-1,5-naphthyridin-4-yl)oxy]phenyl]-4-oxopyridine-3-carboxamide] | < 100 nM | < 100 nM | < 100 nM | < 100 nM
COc1cc2nccc(Oc3ccc(NC(=O)c4cn(C)cc(-c5ccccc5)c4=O)cc3)c2nc1OC [Compound 39, N-[4-[(6,7-Dimethoxy-1,5-naphthyridin-4-yl)oxy]phenyl]-1-methyl-4-oxo-5-phenylpyridine-3-carboxamide hydrochloride] | < 100 nM | < 100 nM | < 100 nM | < 100 nM
COc1cc2nccc(Oc3ccc(NC(=O)c4cn(C)cc(-c5c(C)cc(F)cc5C)c4=O)cc3F)c2nc1OC [Compound 268, N-[4-[(6,7-Dimethoxy-1,5-naphthyridin-4-yl)oxy]-3-fluorophenyl]-5-(4-fluoro-2,6-dimethylphenyl)-1-methyl-4-oxopyridine-3-carboxamide] | < 100 nM | < 100 nM | < 100 nM | < 100 nM

More lines, now with the values ahead:

IC50 [1] | IC50 [2] | IC50 [3] | IC50 [4] | SMILES
< 100 nM | < 100 nM | < 100 nM | < 100 nM | COc1cc2nccc(Oc3ccc(NC(=O)c4nccn(-c5ccc(F)cc5)c4=O)cc3F)c2nc1OC [Compound 379, N-[4-[(6,7-dimethoxy-1,5-naphthyridin-4-yl)oxy]-3-fluorophenyl]-4-(4-fluorophenyl)-3-oxopyrazine-2-carboxamide]
< 100 nM | < 100 nM | < 100 nM | < 100 nM | Cc1nc(C)c(-c2ccc(F)cc2)c(O)c1C(=O)Nc1ccc(Oc2ccnc3ccc(OCCN(C)C)nc23)c(F)c1 [Compound 354, N-[4-[[6-[2-(dimethylamino)ethoxy]-1,5-naphthyridin-4-yl]oxy]-3-fluorophenyl]-5-(4-fluorophenyl)-4-hydroxy-2,6-dimethylpyridine-3-carboxamide]
< 100 nM | < 100 nM | < 100 nM | < 100 nM | COc1cc2nccc(Oc3ccc(NC(=O)c4cc(C(C)C)c(C)n(-c5ccc(F)cc5)c4=O)cc3F)c2nc1OC [Compound 368, N-[4-[(6,7-dimethoxy-1,5-naphthyridin-4-yl)oxy]-3-fluorophenyl]-1-(4-fluorophenyl)-6-methyl-2-oxo-5-propan-2-ylpyridine-3-carboxamide]
< 100 nM | < 100 nM | < 100 nM | < 100 nM | COc1cc2nccc(Oc3ccc(NC(=O)c4cn(C)c(C)c(-c5ccc(F)cc5)c4=O)c(F)c3F)c2nc1OC [Compound 390, N-[4-[(6,7-dimethoxy-1,5-naphthyridin-4-yl)oxy]-2,3-difluorophenyl]-5-(4-fluorophenyl)-1,6-dimethyl-4-oxopyridine-3-carboxamide]
< 100 nM | < 100 nM | < 100 nM | < 100 nM | COc1ccc2nccc(Oc3ccc(NC(=O)c4cnc(C)c(-c5ccc(F)cc5)c4O)cc3F)c2c1 [Compound 347, N-[3-fluoro-4-(6-methoxyquinolin-4-yl)oxyphenyl]-5-(4-fluorophenyl)-4-hydroxy-6-methylpyridine-3-carboxamide]
< 100 nM | < 100 nM | < 100 nM | < 100 nM | COCCOc1ccc2nccc(Oc3ccc(NC(=O)c4ccc(C)n(-c5ccc(F)cc5)c4=O)cc3F)c2n1 [Compound 350, N-[3-fluoro-4-[[6-(2-methoxyethoxy)-1,5-naphthyridin-4-yl]oxy]phenyl]-1-(4-fluorophenyl)-6-methyl-2-oxopyridine-3-carboxamide]
< 100 nM | 100 to 300 nM | < 100 nM | < 100 nM | COc1ccc2nccc(Oc3ccc(NC(=O)c4cn(C)c(C)c(-c5ccc(F)cc5)c4=O)cc3)c2n1 [Compound 356, 5-(4-fluorophenyl)-N-[4-[(6-methoxy-1,5-naphthyridin-4-yl)oxy]phenyl]-1,6-dimethyl-4-oxopyridine-3-carboxamide]
< 100 nM | < 100 nM | < 100 nM | < 100 nM | COc1ccc2nccc(Oc3ccc(NC(=O)c4cn(C(C)C)c(C)c(-c5ccc(F)cc5)c4=O)cc3)c2n1 [Compound 341, 5-(4-fluorophenyl)-N-[4-[(6-methoxy-1,5-naphthyridin-4-yl)oxy]phenyl]-6-methyl-4-oxo-1-propan-2-ylpyridine-3-carboxamide]
